Source: patent US9556417B2, “Reprogramming of cells to a new fate” (The Scripps Research Institute, priority 2010, dated 2017)

B1: BMP4: cardioinductive growth factor, member of the TGF-β superfamily (protein, UniProt P12644 293-408, looked up)
Bone morphogenetic protein 4: SPKHHSQRARKKNKNCRRHSLYVDFSDVGWNDWIVAPPGYQAFYCHGDCPFPLADHLNSTNHAIVQTLVNSVNSSIPKACCVPTELSAISMLYLDEYDKVVLKNYQEMVVEGCGCR

Experiments:
[1] = test system: spontaneously contracting colonies (transdifferentiated cardiomyocytes); assay: Calcium imaging and testing of chronotropic agents; format: cell-based, mouse; details: 1 μM isoproterenol or 10 μM carbachol; 10 minutes after addition
Experimental: Cells were loaded with Fluo-4-AM (5 μM, 30 min, 37° C.) (F14201, Invitrogen), and imaged with an Olympus Fluoview 1000 inverted confocal microscope with a 40× oil immersion lens (numerical aperture 1.3). Line scan imaging mode was used to measure spontaneous Ca2^+ transients at 37° C. Image processing and data analysis were performed as previously described (Ouyang, K. et al., J Biol Chem 280, 15898-902 (2005)). For drug testing, all measurements were repeated 10 minutes after the addition of isoproterenol (1 μM; Sigma) or Carbachol (10 μM; Sigma-Aldrich).

R1 ES cells [2] = assay: Serum-free monolayer cardiac differentiation of ES cells, beating colonies; format: cell-based, mouse; details: early treatment window
Experimental: Having identified the first serum-free monolayer condition for cardiac differentiation of ES cells, we sought to test its efficacy as a platform to discover regulators of cardiomyogenesis. A collection of approximately 200 small molecules and growth factors reported to be influential in developmental processes were assembled. R1 ES cells were grown and plated for differentiation on Matrigel in 24-well plates using the media and growth factors described above. The screening collection was then added and removed from each well at specific time points in order to account for different developmental time windows. The collection was screened at days 0-2, 2-5, and 5-7.
(§1) Cells are plated at a density of 200,000 cells/well of a 6-well plate in 2.5 ml of ESGM. 6-well plates are coated overnight at 4° C. with 1 ml of Matrigel (BD Bioscience) diluted 50× from stock concentration. 24 hours after plating, or after sufficient colony size was achieved, cells are switched into chemically defined medium (CDM) and treated with 4 uM BIO (Calbiochem) and 20 ng/ml BMP-4 (R&D). CDM contains RPMI 1640, 0.5×N2, 1×B27 (without Vitamin A), 0.5× Glutamax, 0.55 mM beta-mercaptoethanol, 1× non-essential amino acids, 1× nucleosides. At Day 2, medium is changed, and again CDM containing 4 uM BIO with 20 ng/ml BMP-4 is added to the cells. At Day 5, cells are washed once with PBS and medium is changed to CDM containing 100 ng/ml Dkk-1 (R&D). At Day 7, medium is changed, and again CDM containing 100 ng/ml Dkk-1 is added to the cells. At Day 10, cells are trypsinized (0.05% trypsin) (Approximately 5 minutes at 37° C., or until cells begin to detach) and replated onto gelatin coated 6-well plates in CDM with no additional growth factors. By this time, the cells will have formed tight colonies that will be difficult to disrupt (Supplementary FIG. 2b). […] The trypsin is used primarily to detach the cells rather than to dissociate them to a single cell suspension. It is preferable for the colonies to remain intact. The trypsin is briefly quenched with MEF media, cells are centrifuged, and resuspended in CDM for plating. Medium is refreshed as needed to remove dead cells and debris (every 1 to 2 days).

R1 ES cells [3] = assay: QRT-PCR of markers in differentiating ES cells; format: cell-based, mouse; details: treated day 0-2, harvested day 4.5
Experimental: To further analyze the mechanism of action of the cardiogenic effect seen with these molecules, QRT-PCR was carried out on cells treated from day 0-2 and harvested at day 4.5.
QRT-PCR was carried out to observe the induction of cardiomyogenesis at the transcript level. At day 5, when A83-01 treatment begins, the predominant state is that of a developed primitive streak type population that is yet to display robust expression of markers of cardiac precursors such as Nkx2.5, Isl-1, and c-kit.
Total RNA from each sample was prepared from 5×10^4 cells using RNeasy mini kit (Qiagen). Reverse transcription was carried out by using Reverse Transcription System (Promega) and PCR performed using PCR Super Mix (Invitrogen).

[4] = test system: mouse embryonic fibroblasts (MEFs); assay: Direct cardiac reprogramming of fibroblasts, contracting patch/colony counts; format: cell-based
Description: Having successfully initiated the early cardiogenic program in MEFs, we next sought to induce robust activation of mid-stage cardiac gene expression and to ultimately generate spontaneously contracting patches of cardiac cells, a hallmark of terminal differentiation that is easily observed and quantified. To this end, we treated three-factor transduced MEFs with chemically defined media (CDM) as well as cytokines and small molecules that might enhance cardiogenesis by regulating TGFβ, bone morphogenetic protein (BMP), Hedgehog, Wnt, or Notch pathway activity. Treatments were done individually and in combination, and at different times during the reprogramming process. Despite the general unsuitability of the resulting protocol for iPSC generation, we also explored whether small-molecule inhibition of JAK-STAT (Janus kinase-signal transducer and activator of transcription), PI3K (phosphatidylinositol 3-kinase), or Wnt signalling during the early stages of the protocol might boost the effectiveness of cardiomyogenesis by preventing even a small number of iPSC intermediates from forming. Finally, we experimented with a more gradual transition between different media by lowering FBS concentration step-wise in increments of 1-4% over 3-6 days (immediately prior to switching to CDM). […] During this initial nine-day period, the small-molecule JAK inhibitor JD is continuously kept in the media at a concentration of 0.5 μM. From day nine onwards, the cells are cultured in CDM, with the cardioinductive growth factor BMP4 (Snyder, A. et al., J Cell Biochem 93, 224-32 (2004)) being added at 20 ng/ml for the first five days (FIG. 1b).
All MEFs (129S2/SvPasCrlf) were derived according to WiCell protocols (https://www.wicell.org/index.php?option=com_docman&task=doc_download&gid=687). TTFs were a kind gift of Dr. Hans Schöler. Secondary MEFs were derived as previously described (Wernig, M. et al., Nat Biotechnol 26, 916-24 (2008)). All results were initially obtained and confirmed with the Nebulette-LacZ MEFs; to ensure reproducibility and minimize inter-experimental variation, reported results almost exclusively derive from experiments utilizing secondary dox-inducible MEFs using the optimum induction period. MEFs were initially passaged on gelatin-coated (0.1% for 2 hours at 37° C.) tissue culture dishes in DMEM supplemented with 10% FBS, 2 mM Glutamax and 0.1 mM NEAA (all components from Invitrogen, Carlsbad, Calif.). Prior to viral transduction, cells were seeded onto Matrigel (BD Biosciences, Franklin Lakes, N.J.) or Geltrex (Invitrogen)-coated plates (1:40, overnight at 4° C.) at 3.5×10^4 cells per well of a six well plate (7×10^4 cells for TTFs) in the same media. […]

R1 mESCs = assay: Serum-free monolayer cardiac differentiation of ES cells, αMHC immunostaining at day 10; format: cell-based, mouse
Description: While cellular differentiation is a fluid process, its study can be simplified by defining stages of differentiation. In order to identify conditions conducive to cardiomyocyte differentiation, we employed a matrix strategy in which cells were differentiated for 10 days encompassing 4 treatment windows (followed by a period of maturation in the final procedure). The stages identified for the current study were mesendoderm, mesoderm, cardiac precursor, early cardiomyocyte, and mature cardiomyocyte. Shown in FIG. 24 is a schematic representing the transition from ES cells to cardiomyocytes, including markers for each cell type defined and the treatments used to stimulate each transition.
We began by identifying a minimal serum-free condition in which approximately 1% of cells would express αMHC (alpha-myosin heavy chain) after 10 days of culture. Combinations of medium components and plate coatings were tested in parallel, with the most permissive and consistent condition being a modified chemically defined N2/B27 medium on Matrigel coated plates (see Methods). Prior to differentiation, ES cells were maintained in a pluripotent state on MEFs and with LIF. At day −1, the cells were trypsinized and replated on Matrigel coated plates in LIF supplemented medium, allowing for better cell survival and more robust initial colony formation. In one day, a sufficient colony size is achieved allowing survival in serum-free medium (FIG. 25).
From a literature search, we identified growth factors, cytokines and small molecules reported to influence cardiac differentiation, such as activators and inhibitors of BMP, TGF-β/Nodal, Hedgehog, Wnt, and Notch pathways and tested each for their ability to induce cardiomyogenesis at each time window. For example, to test Dkk-1 in the second window, cells were in basal medium for days 0-2, treated with Dkk-1 for days 2-5, then cultured in basal medium until day 10 before immunofluorescence scoring. Positive regulators of cardiac specification at each stage were therefore identified by their ability to induce alpha-myosin heavy chain (αMHC) expression at day 10, as assessed by immunostaining.
as §1
Cells were fixed in 4% paraformaldehyde (Sigma) for 15 minutes, and stained in 0.3% Triton (Sigma) containing 5% donkey serum (Jackson ImunoResearch). Antibodies were used at dilutions of MF20 [Developmental Studies Hybridoma Bank (DSHB)] […]

| Molecule | decay period (τ) of calcium transients [1] | frequency of spontaneous calcium transients [1] | cardiac differentiation / percentage of beating colonies (R1 ES cells [2]) | expression of Brachyury T, Flk-1, GATA-4 and MESP1 (R1 ES cells [3]) | contracting patches per 100,000 MEFs plated (mean) ([4]; n=6, JI1 0.5 μM first nine days, BMP4 20 ng/ml five days) | increase in formation of contracting patches ([4]; three-factor transduced MEFs, BMP4 20 ng/ml for first five days in CDM) | optimal concentration (R1 mESCs; first and/or second treatment windows) | cells staining for αMHC (R1 mESCs; treatment in the first window, day 10) |
| --- | --- | --- | --- | --- | --- | --- | --- | --- |
| C[N+](C)(C)CCOC(N)=O [carbachol] | opposite effects | opposite effects | – | – | – | – | – | – |
| CC(C)NCC(O)c1ccc(O)c(O)c1 (stereo not shown) [isoproterenol] | shortened | significantly increased | even more potent cardiac inducing effect than BayK 8644 | increased | – | – | – | – |
| B1 | – | – | – | – | 149±13 patches per 100,000 MEFs plated | ~150 fold | 20 ng/mL | approximately 20% |
